Source: ChEMBL document CHEMBL3856280, “Targeting the HSP60/10 chaperonin systems of Trypanosoma brucei as a strategy for treating African sleeping sickness” (Bioorg Med Chem Lett, 2016)

What was measured:
[1] = Inhibition of pig heart native MDH reporter reaction after 20 to 40 mins by fluorescence based assay; set-up: species or system Sus scrofa
[2] = Cytotoxicity against human THLE3 cells assessed as reduction in cell viability after 48 hrs by alamar blue assay; type: toxicity, cell-based
[3] = target: T1, HSP60/HSP10 (Homo sapiens, UniProt P10809); test: Inhibition of human mitochondrial HSP60/HSP10-ATPase activity expressed in Escherichia coli DH5alpha/BL21 (DE3) assessed as inhibition of denatured MDH refolding preincubated for 10 mins followed by ATP addition measured after 40 to 60 mins by malachite green dye based fluorescence assay
T1 sequence (P10809 whole entry): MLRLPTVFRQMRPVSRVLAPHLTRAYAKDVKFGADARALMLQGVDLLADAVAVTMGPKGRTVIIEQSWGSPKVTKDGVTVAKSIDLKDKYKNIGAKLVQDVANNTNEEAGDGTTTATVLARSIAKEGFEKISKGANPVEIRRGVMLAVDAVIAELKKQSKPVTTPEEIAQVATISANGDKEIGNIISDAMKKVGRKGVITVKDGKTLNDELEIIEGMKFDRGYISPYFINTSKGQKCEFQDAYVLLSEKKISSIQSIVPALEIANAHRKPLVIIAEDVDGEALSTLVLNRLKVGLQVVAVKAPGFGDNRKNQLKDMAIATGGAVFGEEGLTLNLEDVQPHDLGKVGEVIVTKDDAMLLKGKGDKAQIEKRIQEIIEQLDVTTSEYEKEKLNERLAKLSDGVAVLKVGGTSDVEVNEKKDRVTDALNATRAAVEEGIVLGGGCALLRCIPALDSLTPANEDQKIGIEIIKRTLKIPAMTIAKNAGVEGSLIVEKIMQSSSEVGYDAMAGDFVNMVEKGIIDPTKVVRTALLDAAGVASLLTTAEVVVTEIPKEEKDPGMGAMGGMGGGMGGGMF
T1 sequence (P61604 whole entry, further chain): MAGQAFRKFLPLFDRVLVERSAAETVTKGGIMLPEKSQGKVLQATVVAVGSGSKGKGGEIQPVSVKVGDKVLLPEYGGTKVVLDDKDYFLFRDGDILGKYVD

[4] = target: T2, E. coli GroEL/ES (Escherichia coli, UniProt P0A6F5); test: Inhibition of Escherichia coli GroEL/GroES-ATPase activity expressed in Escherichia coli DH5alpha/BL21 (DE3) assessed as inhibition of denatured MDH refolding preincubated for 10 mins followed by ATP addition measured after 20 to 40 mins by malachite green dye based fluorescence assay
T2 sequence (P0A6F5 whole entry, looked up): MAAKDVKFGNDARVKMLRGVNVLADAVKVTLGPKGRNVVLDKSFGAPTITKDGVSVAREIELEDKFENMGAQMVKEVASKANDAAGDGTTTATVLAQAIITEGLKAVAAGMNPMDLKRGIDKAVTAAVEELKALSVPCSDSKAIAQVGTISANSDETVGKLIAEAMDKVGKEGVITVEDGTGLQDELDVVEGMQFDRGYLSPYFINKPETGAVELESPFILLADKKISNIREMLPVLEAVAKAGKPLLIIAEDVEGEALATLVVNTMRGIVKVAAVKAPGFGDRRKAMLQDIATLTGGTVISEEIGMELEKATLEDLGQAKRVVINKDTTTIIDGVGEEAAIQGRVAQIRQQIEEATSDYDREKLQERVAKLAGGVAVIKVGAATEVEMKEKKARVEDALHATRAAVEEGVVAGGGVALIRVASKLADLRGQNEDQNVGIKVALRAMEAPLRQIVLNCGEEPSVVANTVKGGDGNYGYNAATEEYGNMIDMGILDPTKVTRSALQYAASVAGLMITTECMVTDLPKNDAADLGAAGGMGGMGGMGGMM

[5] = Cytotoxicity against HEK293 cells assessed as reduction in cell viability after 48 hrs by alamar blue assay; type: toxicity, cell-based; settings: human
[6] = tested on: Trypanosoma brucei brucei; test: Antitrypanosomal activity against Trypanosoma brucei brucei Lister 427 VSG 221 [TetR T7RNAP] transgenic bloodstream forms assessed as reduction in cell viability after 48 hrs by alamar blue assay; type: functional; settings: Lister 427 VSG 221, 48 h
[7] = target: T1, HSP60/HSP10; test: Inhibition of human mitochondrial HSP60/HSP10 expressed in Escherichia coli DH5alpha/BL21 (DE3) assessed as inhibition of denatured MDH refolding preincubated for 10 mins followed by ATP addition measured after 40 to 60 mins by fluorescence based assay
[8] = target: T2, E. coli GroEL/ES; test: Inhibition of Escherichia coli GroEL/GroES expressed in Escherichia coli DH5alpha/BL21 (DE3) assessed as inhibition of denatured MDH refolding preincubated for 10 mins followed by ATP addition measured after 20 to 40 mins by fluorescence based assay

Row | SMILES | IC50 [1] | EC50 at 48 h [2] | IC50 [3] | IC50 [4] | EC50 at 48 h [5] | EC50 [6] | IC50 [7] | IC50 [8]
1 | O=S(=O)(Nc1ccc(-c2nc3cc(NS(=O)(=O)c4ccc5ncsc5c4)ccc3o2)cc1)c1ccc2ncsc2c1 | > 63 µM | 30 µM | > 250 µM | 0.55 µM | 95 µM | 25 µM | 49 µM | 0.81 µM
2 | Cc1cccc(S(=O)(=O)Nc2ccc(-c3nc4cc(NS(=O)(=O)c5cccc(C)c5)ccc4o3)cc2)c1 | > 63 µM | 18 µM | > 250 µM | > 250 µM | 65 µM | 4.9 µM | > 100 µM | 35 µM
3 | O=C(O)c1ccc(S(=O)(=O)Nc2ccc(-c3nc4cc(NS(=O)(=O)c5ccc(C(=O)O)cc5)ccc4o3)cc2)cc1 | > 63 µM | > 100 µM | > 250 µM | > 250 µM | > 100 µM | > 42 µM | > 100 µM | 83 µM
4 | O=C(O)c1ccccc1S(=O)(=O)Nc1ccc(-c2nc3cc(NS(=O)(=O)c4ccccc4C(=O)O)ccc3o2)cc1 | > 63 µM | > 100 µM | > 250 µM | > 250 µM | > 100 µM | > 42 µM | > 100 µM | > 100 µM
5 | N=C(N)c1ccc(OCCCCCOc2ccc(C(=N)N)cc2)cc1 [PENTAMIDINE] | > 63 µM | 19 µM | > 250 µM | > 250 µM | > 100 µM | < 0.019 µM | > 100 µM | > 100 µM
6 | O=S(=O)(Nc1ccc(-c2nc3cc(NS(=O)(=O)c4cccs4)ccc3o2)cc1)c1cccs1 | > 63 µM | 44 µM | > 250 µM | 6.7 µM | 26 µM | 17 µM | 57 µM | 4.6 µM
7 | CS(=O)(=O)Nc1ccc(-c2nc3cc(NS(C)(=O)=O)ccc3o2)cc1 | > 63 µM | > 100 µM | > 250 µM | > 250 µM | > 100 µM | > 42 µM | > 100 µM | > 100 µM
8 | O=S(=O)(Nc1ccc(-c2nc3cc(NS(=O)(=O)c4ccc(Br)cc4)ccc3o2)cc1)c1ccc(Br)cc1 | > 63 µM | 16 µM | > 250 µM | 19 µM | 22 µM | 2.4 µM | > 100 µM | 24 µM
9 | N#Cc1ccccc1S(=O)(=O)Nc1ccc(-c2nc3cc(NS(=O)(=O)c4ccccc4C#N)ccc3o2)cc1 | > 63 µM | 93 µM | 193 µM | > 250 µM | 74 µM | 23 µM | 86 µM | 32 µM
10 | O=S(=O)(Nc1ccc(-c2nc3cc(NS(=O)(=O)c4cccc(Cl)c4)ccc3o2)cc1)c1cccc(Cl)c1 | > 63 µM | 17 µM | > 250 µM | > 250 µM | 21 µM | 4.5 µM | > 100 µM | 18 µM
11 | O=S(=O)(Nc1ccc(-c2nc3cc(NS(=O)(=O)c4ccc(F)cc4)ccc3o2)cc1)c1ccc(F)cc1 | > 63 µM | 19 µM | > 250 µM | 4.3 µM | 21 µM | 4.3 µM | > 100 µM | 3.8 µM
